# Source: US20220290103A1, “METHODS AND COMPOSITIONS USING AUXOTROPHIC REGULATABLE CELLS” (AUXOLYTIC LTD, priority 2019, published 2022)
# Assays:
# [1] = system: K562 cells with wild-type UMPS; assay: K562 xenograft model, bioluminescence imaging; type: in vivo, NSG mice; conditions: UTA supplemented food (same with normal food)
# Excerpt: (§1) For the K562 xenograft assay, 6 to 12 weeks old male NOD SCID gamma mouse (NSG) mice were transplanted with 1×10^6 K562 cells resuspended in […]® protein mixture (Corning, Inc.) 1:1 diluted with PBS under anesthesia. All animals were kept and handled according to institutional guidelines and the experimental protocol was approved by Stanford University's Administrative Panel on Laboratory Animal Care.
# (§2) The previously engineered UMPSK^KO/KO K562 cell line expressing firefly luciferase (FLuc) was used in a xenograft model in NSG mice. […] Cas9 RNP is targeted to exon 1 of the HBB locus with a guide RNA and a DNA donor template transduced by rAAV6 which carries a FLuc-2A-GFP-polyA cassette under control of the SFFV promoter. FACS analysis was performed four days after targeting of K562 cells to evaluate GFP expression before sorting of the GFP+ population. In a control group administered the AAV only, 1.61% of the cells were GFP+, and […]. […]
# (§3) UMPSK^KO/KO K562 cells or control cells were transplanted subcutaneously and observed weekly with bioluminescence imaging. Luminescence imaging of K562 cells was performed 5 minutes after intraperitoneal (ip) injection of 125 mg/kg D-Luciferin (PerkinElmer) on an IVIS Spectrum imaging system (PerkinElmer). […]
# UMPS^KO/KO K562 cells = assay: K562 xenograft model, bioluminescence imaging; type: in vivo, NSG mice; conditions: mice fed with 8% UTA
# Excerpt: as §1, §2, §3
# [2] = cited from earlier work
smiles,measurement,setting,value
"CC(=O)OC[C@H]1O[C@@H](n2ccc(=O)[nH]c2=O)[C@H](OC(C)=O)[C@@H]1OC(C)=O [UTA, uridine triacetate]",Tumor burden of UMPS wild-type K562 cells,[1],increase in tumor burden
same,Luminescence of UMPS^KO/KO K562-derived tumors,UMPS^KO/KO K562 cells,increased
same,Increase of uridine serum levels,"[2]; humans and mouse models, administration as prodrug",greater than 10 fold
same,Tolerability,"[2]; mice, food enriched with 8% (w/w) UTA",well tolerated
